Legend:
[1] = system: PARPi resistant SUM149PT cells; experiment: PAR and gH2AX high-content imaging in PARPi-resistant cells; format: cell-based, human; conditions: 10 µM JA2131 2 h; 3Gy IR
Experimental: PARG inhibitors as potential therapeutic option for PARP1 inhibitor resistant cancers.
As PARP1 inhibitors are now widely used in the clinic but frequently resistance is emerging, we evaluated if PARG may be a therapeutic option for patients who become PARP1 inhibitor resistant. We therefore generated PARP1 inhibitor resistant SUM149PT triple negative breast cancer cell-lines through with 100 nM talazoparib for 5 constitutive days and then with 15-50 nM talazoparib until resistant cells grew into clones. The resulting resistant cell clones were propagated and expanded to generate PARP inhibitor resistant SUM149PT derivative cells that no longer responded to PARP1i treatment. We then investigated whether the PARP resistant breast cancer cells would response to the PARG inhibitors. Four PARPi resistant SUM149PT cell clones together with wild type cells were treated with JA2131. PAR accumulation and gH2AX foci formation were analyzed by high content imaging (Fig. S6). Treatment of cells with […]
immu n o fluorescence signals. The PAR accumulation and gH2AX foci formation was very similar […]
PARP1 resistant patients.
Supplementary Fig. 17: PARPi resistant cells respond to JA2131 PARGi. (a) PARGi sensitizes PARP1i resistant breast cancer cells. […]

[2] = Sulforhodamine B (SRB) cytotoxicity assay; format: cell-based, human; conditions: human; for viability at 72 h, 25 µM: log concentration μM 1.39794
Experimental: (§1) Fig. 6 Selective inhibition of PARG by xanthine derivative JA2131. a Clonogenic survival assays of PC3, MDA-MB-231, and MCF-7 cells treated with PARGi. Cells were treated with either DMSO or 10 µM JA2131 for 2 h, irradiated with 3 Gy (MDA-MB-231 and MCF-7), 7 Gy (PC3) IR and grown for ~2 weeks, then colonies were fixed with methanol and stained with crystal violet. The results of three independent experiments are shown. Error bars = the standard error of the mean (SEM). b dose-response of JA2131 in MDA-MB-231 cells with and without IR. Cells were treated with designated concentrations of JA2131 for 2 h and then either left untreated or exposed to 3 Gy IR and allowed to recover for 1 h before lysis. Total protein was immunoblotted with anti-PAR antibody (upper panel), stripped and reprobed with anti-PCNA as a loading control. c MDA-MB-231 cells with stable scrambled shRNA (WT) or stable PARG shRNA, knockdown (KD), were treated with 5 μM JA2131 for 2 h, lysed and then total lysates were immunoblotted for anti-PAR (upper panel) followed by anti-PARG (upper middle panel), anti-PARP1 (lower middle panel) and anti-actin (bottom panel) antibody. […] Stable cells with scramble shRNA (control) and shPARG (PARG-KD) cells were treated with an increasing concentration of JA2131 for growth inhibitory IC50 determination. The data was normalized against 100% survival at the lowest inhibitor concentration. Error bars show the percent coefficient of variation. Equivalent concentrations of DMSO were used as a negative control. e The cytotoxicity of JA2131 along with PDD, Veliparib and Doxorubicin against MRC-5 cells. Error bars show the percent coefficient of variation. f CETSA for in-cell JA2131 target engagement. Normalized anti-PARG western blot intensities of three independent experiments were fitted as above and the estimated aggregation temperature (Tagg) is shown in the tabulated insert. Source Data are provided as a Source Data file.

MRC-5 cells = experiment: Sulforhodamine B (SRB) cytotoxicity assay; format: cell-based, human; conditions: Homo sapiens, MRC5, 72 h
Experimental: as §1

MDA-MB-231 PARG-KD cells = experiment: Sulforhodamine B (SRB) cytotoxicity assay; format: cell-based, human
Experimental: as §1

HeLa cells = experiment: DNA fiber assay, replication fork progression; format: cell-based, human; conditions: JA2131 10 µM
Excerpt: Normalized % viabilities are plotted against log concentration. Error bars show the percent coefficient of variation. […] Mann-Whitney test was used to generate the p-value. The DNA spread assay is the representation of two independently repeated experiments. Source Data are provided as a Source Data file.

PCNA in PC3 cells = target: T1, PCNA in PC3 cells (Homo sapiens, UniProt P12004); experiment: Cellular thermal shift assay (CETSA), control protein; format: cell-based; conditions: 10 μM JA2131
T1 construct: endogenous in cells; host or cells: PC3
Experimental: CETSA was performed as described by Molina et al.[44]. Briefly, PC3 cells were treated with 10 μM JA2131 or an equivalent volume of DMSO for 2 h, washed three times with PBS and extracted for total cell lysate. Ten percent glycerol was added to the samples before subjecting to heat. […] Then, samples were centrifuged at 14,000 rpm for 20 min at 4 °C. Supernatants were carefully removed and analyzed by western blotting analysis.
Supplementary Fig. 14: Representative CETSA western blots for PARG and PCNA. PC3 cells
treated with 10 µM JA2131 or DMSO were temperature shocked as described in Materials and […]
PCNA antibody. Anti -Histone H3 was used as loading control.
(1 picture or pasted object on this page, not shown here)

T1 sequence (P12004 whole entry): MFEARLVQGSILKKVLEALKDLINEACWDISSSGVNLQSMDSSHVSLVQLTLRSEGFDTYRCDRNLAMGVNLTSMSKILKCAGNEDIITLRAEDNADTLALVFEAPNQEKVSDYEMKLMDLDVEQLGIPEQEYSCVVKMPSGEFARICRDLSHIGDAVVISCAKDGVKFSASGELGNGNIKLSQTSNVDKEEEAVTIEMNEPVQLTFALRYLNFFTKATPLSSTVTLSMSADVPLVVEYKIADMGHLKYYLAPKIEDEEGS

For `Cn1c(=S)c2[nH]c(SCCN3CCOCC3)nc2n(C)c1=O` [JA2131], the “PAR accumulation and gH2AX staining” value [1] was “increased PAR accumulation as well as gH2AX staining”, the viability at 72 h, 25 µM ([2]; MDA-MB-231 cells with stable PARG shRNA knockdown (PARG-KD), 72 h) was 80.4% and the viability at 72 h, 50 µM ([2]; MDA-MB-231 cells with stable PARG shRNA knockdown (PARG-KD), log concentration μM 1.69897, 72 h) was 70.2%. The viability at 72 h, 25 µM ([2]; MDA-MB-231 control cells with stable scramble shRNA) was 17%, the viability at 72 h, 1.95 µM ([2]; MRC-5 cells, log [concentration] μM 0.29) was 98.4% and the viability at 72 h, 3.89 µM ([2]; MRC-5 cells, log [concentration] μM 0.59) was 99.3%. For the same compound, the viability at 72 h, 7.76 µM ([2]; MRC-5 cells, log [concentration] μM 0.89) was 98.5%, the viability at 72 h, 15.5 µM ([2]; MRC-5 cells, log [concentration] μM 1.19) was 100% and the viability at 72 h, 30.9 µM ([2]; MRC-5 cells, log [concentration] μM 1.49) was 91.9%. For the same compound, the viability at 72 h, 63.1 µM ([2]; MRC-5 cells, log [concentration] μM 1.8) was 79.9%, the viability at 72 h, 126 µM ([2]; MRC-5 cells, log [concentration] μM 2.1) was 61.4% and the viability at 72 h, 251 µM ([2]; MRC-5 cells, log [concentration] μM 2.4) was 28.2%. For the same compound, the viability at 72 h, 501 µM ([2]; MRC-5 cells, log [concentration] μM 2.7) was 20.4%, the viability at 72 h, 0.977 µM ([2]; MRC-5 cells, log [concentration] μM -0.01) was 93.5% and the viability at 72 h, 0.49 µM ([2]; MRC-5 cells, log [concentration] μM -0.31) was 100%. The viability at 72 h, 0.245 µM ([2]; MRC-5 cells, log [concentration] μM -0.61) was 100%, the IC50 (MRC-5 cells) was 132 ± 35.9 µM and the “IC50 in PARG-depleted cells relative to control cells” value (MDA-MB-231 PARG-KD cells) was ~10 fold. The “fraction of PARG-KD cells responding to the PARGi” value (MDA-MB-231 PARG-KD cells) was 50%, the IC50 (MDA-MB-231 PARG-KD cells; Homo sapiens, MDA-MB-231, growth inhibitory, 72 h) was 34.4 ± 13.3 µM and the Viability (MDA-MB-231 PARG-KD cells; log concentration μM 0.193959, 72 h) was 105.597%. It also gave a Viability (MDA-MB-231 PARG-KD cells; log concentration μM 0.49485, 72 h) of 101.727%, a Viability (MDA-MB-231 PARG-KD cells; log concentration μM 0.79588, 72 h) of 99.9152% and a Viability (MDA-MB-231 PARG-KD cells; log concentration μM 1.09691, 72 h) of 97.9571%. For the same compound, the Viability (MDA-MB-231 PARG-KD cells; log concentration μM 2, 72 h) was 52.7893%, the Viability (MDA-MB-231 PARG-KD cells; log concentration μM 2.30103, 72 h) was 51.5972% and the Viability (MDA-MB-231 PARG-KD cells; log concentration μM -0.10735, 72 h) was 104.639%. It also gave a Viability (MDA-MB-231 PARG-KD cells; log concentration μM -0.40782, 72 h) of 106.229%, a Viability (MDA-MB-231 PARG-KD cells; log concentration μM -0.70997, 72 h) of 102.262% and a Viability (MDA-MB-231 PARG-KD cells; log concentration μM -1.00877, 72 h) of 100%. For the same compound, the “average IdU tract” value (HeLa cells; 2 h pretreatment, no genotoxic stress) was 6.0 μm, the “average IdU tract length” value (HeLa cells; low-dose hydroxyurea) was 5.0 μm and the “change in thermal stability of PCNA control” value (PCNA in PC3 cells) was “no significant change in thermal stability”. The “Band intensities, anti-PCNA” value (PCNA in PC3 cells; Temperature 4 °C) was 100, the “Band intensities, anti-PCNA” value (PCNA in PC3 cells; Temperature 51 °C) was 91.1484 and the “Band intensities, anti-PCNA” value (PCNA in PC3 cells; Temperature 62 °C) was 38.4112. The “Band intensities, anti-PCNA” value (PCNA in PC3 cells; Temperature 68 °C) was 12.3183, the “Band intensities, anti-PCNA” value (PCNA in PC3 cells; Temperature 72 °C) was 4.285 and the “Band intensities, anti-PCNA” value (PCNA in PC3 cells; Temperature 77 °C) was 3.2332. For the same compound, the “Band intensities, anti-PCNA” value (PCNA in PC3 cells; Temperature 85 °C) was 4.145.

Reference: article PMC6906431, “Selective small molecule PARG inhibitor causes replication fork stalling and cancer cell death” (Nature Communications, 2019)
